Here are results for 11 molecules from patent US9637453B2, “3-spirocyclic-6-hydroxamic acid tetralins as HDAC inhibitors” (Forma Therapeutics, Inc., priority 2015, dated 2017).

SMILES strings stand for the structures. pIC50: −log10 of the molar value.

Assay [1] concerns the target T1, Full length human recombinant HDAC6 (Homo sapiens, UniProt Q9UBN7).
T1 construct: Full length human recombinant HDAC6 and HDAC11 proteins were expressed in baculoviral system
T1 sequence (Q9UBN7 1-1215): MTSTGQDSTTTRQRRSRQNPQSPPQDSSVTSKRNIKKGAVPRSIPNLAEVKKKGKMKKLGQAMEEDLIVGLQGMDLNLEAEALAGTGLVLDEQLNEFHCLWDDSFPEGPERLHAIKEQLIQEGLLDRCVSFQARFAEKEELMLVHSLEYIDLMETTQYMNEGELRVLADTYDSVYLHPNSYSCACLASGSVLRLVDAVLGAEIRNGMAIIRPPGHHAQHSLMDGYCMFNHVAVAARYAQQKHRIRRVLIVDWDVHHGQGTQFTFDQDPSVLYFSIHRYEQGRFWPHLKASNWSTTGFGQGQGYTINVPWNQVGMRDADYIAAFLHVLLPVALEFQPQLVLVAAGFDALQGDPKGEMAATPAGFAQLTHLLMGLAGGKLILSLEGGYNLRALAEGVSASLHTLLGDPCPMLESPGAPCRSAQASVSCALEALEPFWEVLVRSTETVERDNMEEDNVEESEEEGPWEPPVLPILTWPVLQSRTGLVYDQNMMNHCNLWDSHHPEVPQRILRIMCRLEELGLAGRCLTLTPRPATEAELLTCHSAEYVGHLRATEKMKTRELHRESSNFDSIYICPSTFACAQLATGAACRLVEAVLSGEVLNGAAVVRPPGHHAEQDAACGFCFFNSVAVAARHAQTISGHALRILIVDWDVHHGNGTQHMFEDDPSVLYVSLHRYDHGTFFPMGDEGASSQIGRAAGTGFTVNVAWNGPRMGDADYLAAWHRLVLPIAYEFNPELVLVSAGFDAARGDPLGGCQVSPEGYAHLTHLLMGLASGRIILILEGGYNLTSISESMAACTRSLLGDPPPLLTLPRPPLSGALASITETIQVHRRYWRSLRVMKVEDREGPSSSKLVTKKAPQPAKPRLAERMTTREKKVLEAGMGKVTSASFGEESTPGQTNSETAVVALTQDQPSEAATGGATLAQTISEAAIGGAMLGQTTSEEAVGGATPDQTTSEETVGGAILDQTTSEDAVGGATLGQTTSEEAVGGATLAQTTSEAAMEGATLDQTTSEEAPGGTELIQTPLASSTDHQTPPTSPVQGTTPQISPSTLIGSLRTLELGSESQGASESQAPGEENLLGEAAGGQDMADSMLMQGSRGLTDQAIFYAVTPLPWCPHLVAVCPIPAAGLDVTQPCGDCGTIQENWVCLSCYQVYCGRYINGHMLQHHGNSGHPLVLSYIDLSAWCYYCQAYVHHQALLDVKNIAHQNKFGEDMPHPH
Briefly: In vitro histone deacetylase assay, enzymatic HDAC6 (electrophoretic mobility shift assay). The class given is biochemical. The settings on record: 1 nM HDAC6; 2 μM peptide substrate FAM-RHKK(Ac)—NH2; 25° C.; 12 concentrations; read-out: HDAC6 Activity Range (IC50). The gist of the method:
(§1)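 Baculovirus-expressed full-length enzymes (HDAC6 1 nM, FAM-RHKK(Ac)-NH2; HDAC11 10 nM, FAM-RHKK(tri-fluor-Ac)-NH2), 2 μM substrate, HEPES pH 7.5, 25°C, 12-point 3× dilutions. Product/substrate separated by microfluidic mobility shift after SDS quench; IC50 from 4-parameter fit, reported as +/++/+++ bins.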

Assay [2] deals with T2, Full length human recombinant HDAC11 (Homo sapiens, UniProt Q96DB2).
T2 construct: Full length human recombinant HDAC6 and HDAC11 proteins were expressed in baculoviral system
T2 sequence (Q96DB2 1-347): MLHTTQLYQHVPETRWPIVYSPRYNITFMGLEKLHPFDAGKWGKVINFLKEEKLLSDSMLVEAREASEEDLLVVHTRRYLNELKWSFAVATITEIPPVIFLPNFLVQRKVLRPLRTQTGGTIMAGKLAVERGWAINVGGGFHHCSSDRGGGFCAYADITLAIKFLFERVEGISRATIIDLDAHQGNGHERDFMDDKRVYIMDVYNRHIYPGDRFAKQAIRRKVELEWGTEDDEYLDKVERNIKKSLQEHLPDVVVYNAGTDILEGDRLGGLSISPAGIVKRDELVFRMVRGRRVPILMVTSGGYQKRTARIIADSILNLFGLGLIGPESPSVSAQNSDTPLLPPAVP
Briefly: In vitro histone deacetylase assay, enzymatic HDAC11 (electrophoretic mobility shift assay). Conditions: 10 nM HDAC11; 2 μM peptide substrate FAM-RHKK(tri-fluor-Ac)—NH2; 25° C.; 12 concentrations; read-out: HDAC11 Activity Range (IC50). The class given is biochemical. The gist of the method:
as §1

Turning to `O=C(NO)c1ccc2c(c1)C[C@@]1(CC2)CCN(Cc2cc(Cl)ccc2Cl)C1=O` [Compound I-67, (S)-1′-(2,5-dichlorobenzyl)-N-hydroxy-2′-oxo-3,4-dihydro-1H-spiro[naphthalene-2,3′-pyrrolidine]-7-carboxamide], the pIC50 in assay [1] was 6.30 to 7.00; in assay [2], below 6.30.
For the molecule `O=C(NO)c1ccc2c(c1)C[C@@]1(CC2)CCN(Cc2c(Cl)cccc2Cl)C1=O` [Compound I-68, (S)-1′-(2,6-dichlorobenzyl)-N-hydroxy-2′-oxo-3,4-dihydro-1H-spiro[naphthalene-2,3′-pyrrolidine]-7-carboxamide], the negative logarithm of the IC50 (pIC50) was at least 7.00 in assay [1] and below 6.30 in assay [2].
The corresponding values for `COc1cccc(CN2CC[C@@]3(CCc4ccc(C(=O)NO)cc4C3)C2=O)c1` [Compound I-69, (S)—N-hydroxy-1′-(3-methoxybenzyl)-2′-oxo-3,4-dihydro-1H-spiro[naphthalene-2,3′-pyrrolidine]-7-carboxamide] are at least 7.00 and below 6.30.
As to `O=C(NO)c1ccc2c(c1)C[C@@]1(CC2)CCN(Cc2cccnc2)C1=O` [Compound I-70, (S)—N-hydroxy-2′-oxo-1′-(pyridin-3-ylmethyl)-3,4-dihydro-1H-spiro[naphthalene-2,3′-pyrrolidine]-7-carboxamide], the results for the pIC50 in assay [1] and in assay [2] were at least 7.00 and below 6.30, respectively.
Regarding `O=C(NO)c1ccc2c(c1)C[C@@]1(CC2)CCN(Cc2ccccn2)C1=O` [Compound I-71, (S)—N-hydroxy-2′-oxo-1′-(pyridin-2-ylmethyl)-3,4-dihydro-1H-spiro[naphthalene-2,3′-pyrrolidine]-7-carboxamide], the pIC50 in assay [1] is at least 7.00; in assay [2], below 6.30.
Consider `O=C(NO)c1ccc2c(c1)C[C@@]1(CC2)CCN(Cc2cccc(F)c2)C1=O` [Compound I-72, (S)-1′-(3-fluorobenzyl)-N-hydroxy-2′-oxo-3,4-dihydro-1H-spiro[naphthalene-2,3′-pyrrolidine]-7-carboxamide], for which the pIC50 in assay [1] was at least 7.00; in assay [2], below 6.30.
On the same counts, the results for `O=C(NO)c1ccc2c(c1)C[C@@]1(CC2)CCN(Cc2ccc(OC(F)(F)F)cc2)C1=O` [Compound I-73, (S)—N-hydroxy-2′-oxo-1′-(4-(trifluoromethoxy)benzyl)-3,4-dihydro-1H-spiro[naphthalene-2,3′-pyrrolidine]-7-carboxamide] are at least 7.00 and below 6.30.
On the same counts, the results for `O=C(NO)c1ccc2c(c1)C[C@@]1(CC2)CCN(Cc2cccc(Cl)c2)C1=O` [Compound I-74, (S)-1′-(3-chlorobenzyl)-N-hydroxy-2′-oxo-3,4-dihydro-1H-spiro[naphthalene-2,3′-pyrrolidine]-7-carboxamide] are at least 7.00 and below 6.30.
The corresponding values for `COc1ccc(CN2CC[C@@]3(CCc4ccc(C(=O)NO)cc4C3)C2=O)cc1` [Compound I-75, (S)—N-hydroxy-1′-(4-methoxybenzyl)-2′-oxo-3,4-dihydro-1H-spiro[naphthalene-2,3′-pyrrolidine]-7-carboxamide] are at least 7.00 and below 6.30.
As to `O=C(NO)c1ccc2c(c1)C[C@@]1(CC2)CCN(Cc2ccccc2F)C1=O` [Compound I-76, (S)-1′-(2-fluorobenzyl)-N-hydroxy-2′-oxo-3,4-dihydro-1H-spiro[naphthalene-2,3′-pyrrolidine]-7-carboxamide], the pIC50 was at least 7.00 in assay [1] and below 6.30 in assay [2].
On the same counts, the results for `O=C(NO)c1ccc2c(c1)C[C@@]1(CC2)CCN(Cc2ccc3ccccc3c2)C1=O` [Compound I-77, (S)—N-hydroxy-1′-(naphthalen-2-ylmethyl)-2′-oxo-3,4-dihydro-1H-spiro[naphthalene-2,3′-pyrrolidine]-7-carboxamide] are at least 7.00 and 6.30 to 7.00.
